These results are taken from patent US11253525B2, “Inhibitors of indoleamine 2,3-dioxygenase and methods of their use” (BRISTOL-MYERS SQUIBB COMPANY, priority 2018, dated 2022).

As a reminder, the IC50 is the concentration that inhibits the measured activity by half.

A value given as a limit tells only on which side of the number the result lay.

For the first assay, the target named is T1, indoleamine 2,3-dioxygenase (IDO) (Homo sapiens, UniProt P14902).
T1 construct: replaced with media containing IFNγ (#285-IF/CF, R&D Systems) at a final concentration of 25 ng/mL; endogenous in cells; host or cells: HeLa (ATCC CCL-2), IFN-gamma stimulated
T1 sequence (P14902 whole entry): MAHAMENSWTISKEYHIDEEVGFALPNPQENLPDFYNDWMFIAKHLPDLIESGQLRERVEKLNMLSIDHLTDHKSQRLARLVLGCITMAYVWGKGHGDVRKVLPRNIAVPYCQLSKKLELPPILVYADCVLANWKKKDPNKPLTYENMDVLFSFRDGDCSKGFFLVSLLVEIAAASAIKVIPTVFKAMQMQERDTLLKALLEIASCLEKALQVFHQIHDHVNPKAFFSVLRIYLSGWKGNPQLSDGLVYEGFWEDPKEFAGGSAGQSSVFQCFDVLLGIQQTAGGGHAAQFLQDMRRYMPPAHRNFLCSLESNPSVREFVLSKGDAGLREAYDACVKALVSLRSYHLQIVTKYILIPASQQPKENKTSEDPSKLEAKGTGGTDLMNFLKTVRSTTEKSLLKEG
Put plainly: HeLa cell-based indoleamine 2,3-dioxygenase (IDO) assay, kynurenine production. The note with it: HeLa cells, IFNγ 25 ng/mL, 48 hour incubation; read-out: IDO Hela IC50. The procedure: Assessment of Inhibitor Activity in HeLa Cell-Based Indoleamine 23-Dioxygenase (IDO) Assay
Cells were maintained in a humidified incubator at 37° C. in 5% CO2.
IDO activity was assessed as a function of kynurenine production as follows: HeLa cells were seeded in a 96-well culture plate at a density of 5,000 cells/well and allowed to equilibrate overnight. […] A serial dilution of each test compound was added to the cells in a total volume of 200 μL of culture medium. After a further 48 hour incubation, 170 μL of supernatant was transferred from each well to a fresh 96-well plate. 12.1 μL of 6.1N trichloroacetic acid (#T0699, Sigma-Aldrich) was added to each well and mixed, followed by incubation at 65° C. for 20 minutes to hydrolyze N-formylkynurenine, the product of indoleamine 2,3-dioxygenase, to kynurenine. The reaction mixture was then centrifuged for 10 mins at 500×g to sediment the precipitate. 100 μL of the supernatant was transferred from each well to a fresh 96-well plate. […] Kynurenine concentrations were determined by measuring absorbance at 480 nm and calibrating against an L-kynurenine (#K8625, Sigma-Aldrich) standard curve using a SPECTRAMAX® M2e microplate reader (Molecular Devices). The percentage activity at each inhibitor concentration was determined and IC50 values assessed using nonlinear regression.
Turning to `CC[C@@H](CC(=O)O)c1ccc([C@@H](OC)C(F)(F)F)c(Nc2cnc(C(F)(F)F)nc2)c1` (single isomer, unassigned) [Example 88], the IC50 amounted to 10 nM.
In the case of `CCOc1ncc(Nc2cc([C@@H](CC)CC(=O)O)ccc2[C@H](CC)N2CCOCC2)cn1` (single isomer, unassigned) [Example 118-2], the IC50 is 430 nM.
Same read-out and setting: next, `CCO[C@H](c1ccc([C@H](COC)CC(=O)O)cc1Nc1ccc(C#N)cc1)C(F)(F)F` (relative stereo) [Example 57, (R)-3-(3-((4-cyanophenyl)amino)-4-((R)-1-ethoxy-2,2,2-trifluoroethyl)phenyl)-4-methoxybutanoic acid]: 10 nM; `CCO[C@H](c1ccc([C@H](CC)CC(=O)O)cc1NC(=O)Nc1ccc(C)cc1)C(F)(F)F` (single isomer, unassigned) [Example 7]: 60 nM.
For the molecule `CCOc1ncc(Nc2cc([C@@H](CC)CC(=O)O)ccc2[C@@H](OCC)C(F)(F)F)cn1` (relative stereo) [Example 24, (S)-3-(4-((R)-1-ethoxy-2,2,2-trifluoroethyl)-3-((2-ethoxypyrimidin-5-yl)amino)phenyl)pentanoic acid], the half-maximal inhibitory concentration (IC50) was determined as 10 nM.
For the molecule `CCO[C@H](c1ccc([C@@H](CC)CC(=O)O)cc1Nc1cnc(CC)nc1)C(F)(F)F` (single isomer, unassigned) [Example 29], the IC50 stood at 20 nM.
On the same count and under the same terms, next, `CCO[C@H](c1ccc([C@H](CC)CC(=O)O)cc1Nc1cnc(OC)nc1)C(F)(F)F` (single isomer, unassigned) [Example 10]: 20 nM; `CCO[C@H](c1ccc([C@H](CC)CC(=O)O)cc1Nc1cnc(COC)nc1)C(F)(F)F` (single isomer, unassigned) [Example 16]: 610 nM; `CCOc1ncc(Nc2cc([C@@H](CC)CC(=O)O)ccc2[C@H](CC)N2CCOCC2)cn1` (single isomer, unassigned) [Example 118-1]: 750 nM.
The same measure, in the same setting: the same measure for `CCO[C@@H](c1ccc([C@H](CC)CC(=O)O)cc1Nc1cnc(OC)nc1)C(F)(F)F` (single isomer, unassigned) [Example 33]: 30 nM; for `CCc1ncc(Nc2cc([C@@H](COC)CC(=O)O)ccc2[C@H](CC)N2CCOCC2)cn1` (relative stereo) [Example 102, (S)-3-(3-((2-ethylpyrimidin-5-yl)amino)-4-((S)-1-morpholinopropyl)phenyl)-4-methoxybutanoic acid]: 890 nM.
Same read-out and setting: next, `CCO[C@@H](c1ccc([C@@H](CC)CC(=O)O)cc1Nc1cnc(COC)nc1)C(F)(F)F` (single isomer, unassigned) [Example 49]: 440 nM; `CCO[C@H](c1ccc([C@H](COC)CC(=O)O)cc1Nc1ccc(C#N)c(F)c1)C(F)(F)F` (single isomer, unassigned) [Example 55]: 10 nM.
For the molecule `CCO[C@@H](c1ccc([C@@H](COC)CC(=O)O)cc1NC(=O)Nc1ccc(Cl)cc1F)C(F)(F)F` (single isomer, unassigned) [Example 75], the IC50 came out at 40 nM.
Same read-out and setting: the same measure for `CCOc1ncc(Nc2cc([C@H](CC)CC(=O)O)ccc2[C@H](OC)C(F)(F)F)cn1` (relative stereo) [Example 95, (R)-3-(3-((2-ethoxypyrimidin-5-yl)amino)-4-((S)-2,2,2-trifluoro-1-methoxyethyl)phenyl)pentanoic acid]: 10 nM; for `CCO[C@@H](c1ccc([C@H](CC)CC(=O)O)cc1Nc1cnc(COC)nc1)C(F)(F)F` (single isomer, unassigned) [Example 38]: 610 nM.
Still for that read-out and setting: the same measure for `CC[C@@H](c1ccc([C@@H](COC)CC(=O)O)cc1Nc1ccc(F)cc1)N1CCOCC1` (single isomer, unassigned) [Example 106]: 10 nM; for `CCOC(c1ccc(C(COC)CC(=O)O)cc1NC(=O)Nc1ccc(C)cc1)C(F)(F)F` (single isomer, unassigned) [Example 52]: 230 nM.

Still in this assay, the particulars now being: HeLa cells, IFNγ 25 ng/mL, 48 hour incubation; read-out: IDO Hela IC50 class (A < 50, B < 250, C < 2000).
`CCO[C@H](c1ccc([C@@H](CC)CC(=O)O)cc1Nc1ccc(C#N)cc1)C(F)(F)F` (single isomer, unassigned) [Example 26]: the half-maximal inhibitory concentration (IC50) is less than 50 nM.
The same measure, in the same setting: next, `CCO[C@@H](c1ccc([C@H](CC)CC(=O)O)cc1Nc1ccc(C#N)cc1)C(F)(F)F` (single isomer, unassigned) [Example 37]: less than 50 nM; `CC[C@@H](CC(=O)O)c1ccc([C@@H](OC)C(F)(F)F)c(Nc2ccc(C#N)cc2)c1` (single isomer, unassigned) [Example 85]: less than 50 nM; `CC[C@H](CC(=O)O)c1ccc([C@@H](CC)N2CCOCC2)c(Nc2ccc(C#N)cc2)c1` (relative stereo) [Example 122, (R)-3-(3-((4-cyanophenyl)amino)-4-((R)-1-morpholinopropyl)phenyl)pentanoic acid]: less than 50 nM.
Regarding `CC[C@@H](c1ccc([C@@H](COC)CC(=O)O)cc1Nc1ccc(Cl)cc1)N1CCOCC1` (relative stereo) [Example 105, (S)-3-(3-((4-chlorophenyl)amino)-4-((S)-1-morpholinopropyl)phenyl)-4-methoxybutanoic acid], the concentration for half-maximal inhibition (IC50) was less than 50 nM.
The same measure, in the same setting: the same measure for `CCO[C@@H](c1ccc([C@@H](COC)CC(=O)O)cc1Nc1cnc(C)nc1)C(F)(F)F` [Example 81, (S)-3-(4-((S)-1-ethoxy-2,2,2-trifluoroethyl)-3-((2-methylpyrimidin-5-yl)amino)phenyl)-4-methoxybutanoic Acid]: 250 to 2000 nM.
In the case of `CC[C@@H](c1ccc([C@@H](COC)CC(=O)O)cc1Nc1ccc(C#N)cc1)N1CCOCC1` (single isomer, unassigned) [Example 101-1], the IC50 was less than 50 nM.
The same measure, in the same setting: next, `CCOc1ncc(Nc2cc([C@@H](COC)CC(=O)O)ccc2[C@@H](CC)N2CCOCC2)cn1` (single isomer, unassigned) [Example 108]: 250 to 2000 nM; `CC[C@H](c1ccc([C@@H](COC)CC(=O)O)cc1Nc1ccc(COC)nc1)N1CCOCC1` (relative stereo) [Example 109, (S)-4-methoxy-3-(3-((6-(methoxymethyl)pyridin-3-yl)amino)-4-((R)-1-morpholinopropyl)phenyl)butanoic acid]: 250 to 2000 nM.
The same measure, in the same setting: the same measure for `CCO[C@H](c1ccc([C@H](COC)CC(=O)O)cc1Nc1ncc(F)cn1)C(F)(F)F` (single isomer, unassigned) [Example 56]: 250 to 2000 nM.
On the same count and under the same terms, the same measure for `CCO[C@H](c1ccc([C@@H](COC)CC(=O)O)cc1Nc1ccc(Cl)cc1)C(F)(F)F` (single isomer, unassigned) [Example 66]: less than 50 nM; for `CC[C@H](c1ccc([C@@H](COC)CC(=O)O)cc1Nc1ccc(C#N)cc1)N1CCOCC1` (single isomer, unassigned) [Example 101-2]: 250 to 2000 nM; for `CC[C@H](CC(=O)O)c1ccc([C@@H](OC)C(F)(F)F)c(Nc2ccc(C#N)cc2)c1` (relative stereo) [Example 89, (R)-3-(3-((4-cyanophenyl)amino)-4-((R)-2,2,2-trifluoro-1-methoxyethyl)phenyl)pentanoic acid]: less than 50 nM.
`CC[C@@H](CC(=O)O)c1ccc([C@@H](CC)N2CCOCC2)c(Nc2ccc(OC(F)F)cn2)c1` (relative stereo) [Example 133, (S)-3-(3-((5-(difluoromethoxy)pyridin-2-yl)amino)-4-((R)-1-morpholinopropyl)phenyl)pentanoic acid]: the concentration for half-maximal inhibition (IC50) was in the range of 250 to 2000 nM.
